{"source": "patent US5488055A", "about": "“Substituted N-cycloalkylmethyl-1H-pyrazolo(3,4-b)quinolin-4 amines and compositions and methods of use thereof” (Sanofi Winthrop Inc., priority 1995, dated 1996)", "key": {"cGMP-PDE V [1]": {"system": "cGMP-PDE V", "assay": "c-GMP-PDE V inhibitory activity", "type": "biochemical, various animal species and man", "experimental": "The cGMP-PDE and other PDE isozymes were isolated from cardiovascular tissues (heart and aorta) of various animal species and man by anion-exchange and affinity chromatography as described by Silver et al., Sec. Messeng. Phos. 13:13-25, 1991; PDE activity, in the presence and absence of test compounds was determined essentially as described by Thompson et al., Adv. Cyclic Nucleotide Res. 10:69-92. To determine the potency and selectivity of compounds as PDE inhibitors, compounds are screened for their effect on cyclic nucleotide hydrolysis at 10 μM. […] The IC50 values are calculated from concentration-response curves as described by Tallarida and Murray, Manual of Pharmacologic Calculations with Computer Programs, Procedure 8, Graded Dose-response, pp. 14-19, Springer-Verlag, New York, 1981."}, "[2]": {"system": "Spontaneously hypertensive rats (SHR)", "assay": "Antihypertensive activity in spontaneously hypertensive rats, iv", "type": "in vivo, rat", "experimental": "After a 2 day recovery from surgery, three baseline blood pressure measurements were made at 5 min intervals in conscious SHR. Compounds to be tested or vehicle were then administered intravenously in a dose-dependent manner (0.3-10 mg base/kg) while arterial pressure was recorded continuously on a polygraph. The mean arterial pressure response was measured 5 minutes after the administration of each dose of the test compound and the next dose given in a cumulative dose fashion. The response to each dose of the test compound was calculated as the difference from the mean of the three baseline measurements."}, "[3]": {"system": "Spontaneously hypertensive rats", "assay": "Reversal of nitrate-induced tolerance in nitroglycerin tolerant spontaneously hypertensive rats", "type": "in vivo, rat", "experimental": "Spontaneously hypertensive rats (17-25 weeks of age) were made nitroglycerin tolerant by repeated administration of high doses of nitroglycerin (100 mg/kg, s.c., 3 times/day for 3 consecutive days). To confirm tolerance challenge doses of nitroglycerin were administered intravenously at doses ranging from 1-300 μg/kg and the maximum change in mean arterial pressure (MAP) for each dose was recorded. Groups of tolerant rats were pretreated with the compounds of the invention (tolerant pretreated group) or with vehicle (0.05 N NaOH) (tolerant vehicle pretreated group) intravenously 5-10 minutes prior to administration of challenge doses of nitroglycerin. The administration of challenge doses of nitroglycerin to non-tolerant rats (the non-tolerant group) caused a dose-dependent decrease in MAP of between 10 to 40 mm Hg. […] The area under the dose-MAP curve was calculated for the non-tolerant group and for the tolerant vehicle pretreated group and the tolerant pretreated group. The percent reversal of nitrate-induced tolerance was calculated as follows:\nPercent Reversal=(AUCtol-pretreated -AUCtol-veh) /(AUCnontol\nAUCnontol =the area under the dose-MAP curve for the non-tolerant group.\nAUCtol-veh =the area under the dose-MAP curve for the tolerant vehicle pretreated group.\nAUCtol-pretreated =the area under the dose-MAP curve for the tolerant pretreated group. […]"}, "[4]": {"settings": "Crenshaw et al., J. Med. Chem. 1976; cited from earlier work"}, "cGMP-PDE V [5]": {"system": "cGMP-PDE V", "settings": "read-out: Km for the hydrolysis of cGMP; isozyme of vascular smooth muscle and renal cells; cited from earlier work"}, "[6]": {"settings": "Rattus norvegicus, 5 min, cumulative dosing, 5 minutes after dose, read-out: % change in mean arterial pressure"}, "[7]": {"settings": "separate experimental runs, first value"}, "[8]": {"settings": "separate experimental runs, second value"}}, "note": "Like-named read-outs stand apart in the source and are kept apart here."}
{"molecule": "CCn1ncc2c(NCC3CCC(CO)CC3)c3ccccc3nc21", "note": "(stereo not drawn) [6(b), 1-ethyl-N-[(4-hydroxymethylcyclohexyl)methyl]-1H-pyrazolo[3,4-b]quinolin-4-amine]", "values": [{"measurement": "IC50", "setting": "cGMP-PDE V [1]", "result": 120, "unit": "nM"}, {"measurement": "change in vivo at 10 mg/kg", "setting": "[2]; [6]", "result": -23, "unit": "%"}]}
{"molecule": "CCn1ncc2c(N[C@@H](C)C3CCCCC3)c3cc([N+](=O)[O-])ccc3nc21", "note": "[Example 34, 1-ethyl-6-nitro-N-[S(+)-1-(cyclohexyl)ethyl]-1H-pyrazolo[3,4-b]quinolin-4-amine]", "values": [{"measurement": "IC50", "setting": "cGMP-PDE V [1]; [7]", "result": 0.22, "unit": "nM"}, {"measurement": "IC50", "setting": "cGMP-PDE V [1]; [8]", "result": 0.16, "unit": "nM"}, {"measurement": "IC50", "setting": "cGMP-PDE V [1]; separate experimental runs, third value", "result": 0.08, "unit": "nM"}, {"measurement": "Percent (%) Reversal of Nitroglycerin-induced Tolerance", "setting": "[3]; 1.0 mg/kg, intravenously 5-10 minutes prior to nitroglycerin challenge", "result": 44, "unit": "%"}]}
{"molecule": "CCn1ncc2c(NCC3CCCCC3)c3cc(OC(C)C(=O)O)ccc3nc21", "note": "(stereo not drawn) [Example 22, 1-ethyl-6-(1-carboxyethoxy)-N-(cyclohexylmethyl)-1H-pyrazolo[3,4-b]quinolin-4-amine]", "values": [{"measurement": "IC50", "setting": "cGMP-PDE V [1]", "result": 74, "unit": "nM"}, {"measurement": "change in vivo at 10 mg/kg", "setting": "[2]; [6]", "result": -7, "unit": "%"}]}
{"molecule": "O=[N+]([O-])OCC(CO[N+](=O)[O-])O[N+](=O)[O-]", "note": "[nitroglycerin, reference compound]", "values": [{"measurement": "hypotensive response to challenge doses of nitroglycerin, in words", "setting": "[3]; tolerant vehicle pretreated group", "result": "significant reduction of the hypotensive response"}]}
{"molecule": "CCn1ncc2c(NCC3CCCCC3)c3cc(OC)ccc3nc21", "note": "[7(d), 1-ethyl-6-methoxy-N-(cyclohexylmethyl)-1H-pyrazolo[3,4-b]quinolin-4-amine]", "values": [{"measurement": "IC50", "setting": "cGMP-PDE V [1]", "result": 33, "unit": "nM"}, {"measurement": "change in vivo at 3 mg/kg", "setting": "[2]; [6]", "result": -16, "unit": "%"}]}
{"molecule": "Cc1nn(C)c2nc3ccccc3c(NCc3cccnc3)c12", "note": "[N-(3-pyridinylmethyl)]", "values": [{"measurement": "activity in the interferon assay", "setting": "[4]", "result": "inactive"}]}
{"molecule": "CCn1ncc2c(NCC3CCCCC3)c3cc(O)ccc3nc21", "note": "[Example 8, 1-ethyl-6-hydroxy-N-(cyclohexylmethyl)-1H-pyrazolo[3,4-b]quinolin-4-amine]", "values": [{"measurement": "IC50", "setting": "cGMP-PDE V [1]", "result": 36, "unit": "nM"}, {"measurement": "% change in mean arterial pressure or ED25, result in words", "setting": "[2]; 0.3-10 mg base/kg", "result": "Inactive"}]}
{"molecule": "CCn1ncc2c(N[C@@H](C)C3CCCCC3)c3cc(S(C)(=O)=O)ccc3nc21", "note": "[37(d), 1-ethyl-6-(methylsulfonyl)-N-[S(+)-1-(cyclohexyl)ethyl]-1H-pyrazolo[3,4-b]quinolin-4-amine]", "values": [{"measurement": "IC50", "setting": "cGMP-PDE V [1]; [7]", "result": 8.3, "unit": "nM"}, {"measurement": "IC50", "setting": "cGMP-PDE V [1]; [8]", "result": 11.5, "unit": "nM"}, {"measurement": "change in vivo at 3 mg/kg", "setting": "[2]; [6]", "result": -15, "unit": "%"}, {"measurement": "change in vivo at 10 mg/kg", "setting": "[2]; [6]", "result": -18, "unit": "%"}]}
{"molecule": "Nc1nc2c(ncn2[C@@H]2O[C@@H]3COP(=O)(O)O[C@H]3[C@H]2O)c(=O)[nH]1", "note": "[cGMP, cyclic guanosine monophosphate]", "values": [{"measurement": "Km", "setting": "cGMP-PDE V [5]", "result": 1, "unit": "µM"}]}
{"molecule": "CCn1ncc2c(NCC3CCCCC3)c3cc(OCC4CO4)ccc3nc21", "note": "(stereo not drawn) [Example 21, 1-ethyl-6-(2,3-epoxypropoxy)-N-(cyclohexylmethyl)-1H-pyrazolo[3,4-b]quinolin-4amine]", "values": [{"measurement": "IC50", "setting": "cGMP-PDE V [1]", "result": 91, "unit": "nM"}, {"measurement": "change in vivo at 10 mg/kg", "setting": "[2]; [6]", "result": -12, "unit": "%"}]}
{"molecule": "Cc1nn(C)c2nc3ccccc3c(NC3CC3)c12", "note": "[N-cyclopropyl]", "values": [{"measurement": "activity in the interferon assay", "setting": "[4]", "result": "inactive"}]}
{"molecule": "CCn1ncc2c(NCC3CCCCC3)c3ccccc3nc21", "note": "[1(c), 1-ethyl-N-(cyclohexylmethyl)-1H-pyrazolo[3,4-b]quinolin-4-amine]", "values": [{"measurement": "IC50", "setting": "cGMP-PDE V [1]", "result": 83, "unit": "nM"}, {"measurement": "change in vivo at 10 mg/kg", "setting": "[2]; [6]", "result": -15, "unit": "%"}]}
{"molecule": "CCn1ncc2c(NCC3CCCCC3)c3cc(OCC(=O)O)ccc3nc21", "note": "[Example 13, 1-ethyl-6-(carboxymethoxy)-N-(cyclohexymethyl)-1H-pyrazolo[3,4-b]quinolin-4-amine]", "values": [{"measurement": "IC50", "setting": "cGMP-PDE V [1]", "result": 42, "unit": "nM"}, {"measurement": "change in vivo at 1 mg/kg", "setting": "[2]; Rattus norvegicus, 5 min, 1 mg/kg, cumulative dosing, 5 minutes after dose, read-out: % change in mean arterial pressure", "result": -10, "unit": "%"}]}
{"molecule": "Cc1nn(C)c2nc3ccccc3c(NCCCNC34CC5CC(CC(C5)C3)C4)c12", "note": "[N-(1,3-dimethyl-1H-pyrazolo[3,4-b]quinolin-4-yl)-N'-tricyclo[3.3.1.1^3.7]dec-1-yl-1,3-propane diamine]", "values": [{"measurement": "activity in the interferon assay", "setting": "[4]", "result": "inactive"}]}
{"molecule": "Cc1nn(C)c2nc3ccccc3c(NCc3ccccc3N(C)C)c12", "note": "[N-[[2-(dimethylamino)phenyl]methyl]-1,3-dimethyl-1H-pyrazolo[3,4-b]quinolin-4-amines]", "values": [{"measurement": "activity in the interferon assay", "setting": "[4]", "result": "inactive"}]}
{"molecule": "Cc1nn(C)c2nc3ccccc3c(NC34CC5CC(CC(C5)C3)C4)c12", "note": "[N-tricyclo[3.3.1.13,7]dec-1-yl]", "values": [{"measurement": "activity in the interferon assay", "setting": "[4]", "result": "inactive"}]}
{"molecule": "CCn1ncc2c(NCC3CCCCC3)c3cc(OCC(O)CO)ccc3nc21", "note": "(stereo not drawn) [17(b), 1-ethyl-6-(2,3-dihydroxypropoxy)-N-(cyclohexylmethyl)-1H-pyrazolo[3,4-b]quinolin-4-amine]", "values": [{"measurement": "IC50", "setting": "cGMP-PDE V [1]", "result": 130, "unit": "nM"}, {"measurement": "change in vivo at 10 mg/kg", "setting": "[2]; [6]", "result": -6, "unit": "%"}]}
{"molecule": "CCn1ncc2c(NCC3CCCCC3)c3ccc(C(=O)O)cc3nc21", "note": "[23(c), 1-ethyl-7-carboxy-N-(cyclohexylmethyl)-1H-pyrazolo[3,4-b]quinolin-4-amine]", "values": [{"measurement": "IC50", "setting": "cGMP-PDE V [1]", "result": 38, "unit": "nM"}, {"measurement": "change in vivo at 3 mg/kg", "setting": "[2]; [6]", "result": -7, "unit": "%"}]}
{"molecule": "CCn1ncc2c(NCC3CCCCC3)c3cc(N)ccc3nc21", "note": "[Example 20, 1-ethyl-6-amino-N-(cyclohexylmethyl)-1H-pyrazolo[3,4-b]quinolin-4-amine]", "values": [{"measurement": "IC50", "setting": "cGMP-PDE V [1]", "result": 300, "unit": "nM"}]}
{"molecule": "CCn1ncc2c(NCC3CCCCC3)c3cc(C(=O)OC)ccc3nc21", "note": "[29(d), 1-ethyl-6-methoxycarbonyl-N-(cyclohexylmethyl)-1H-pyrazolo[3,4-b]quinolin-4-amine]", "values": [{"measurement": "IC50", "setting": "cGMP-PDE V [1]", "result": 15, "unit": "nM"}]}
{"molecule": "CCn1ncc2c(NC[C@@H]3CCC[C@@H](O)C3)c3cc([N+](=O)[O-])ccc3nc21", "note": "(relative stereo) [Example 36(b), 1-ethyl-6-nitro-N-(3-hydroxycyclohexylmethyl)-1H-pyrazolo[3,4-b]quinolin-4-amine]", "values": [{"measurement": "IC50", "setting": "cGMP-PDE V [1]", "result": 19.3, "unit": "nM"}]}
{"molecule": "CCn1ncc2c(NCC3CCCCC3)c3cccc(OC)c3nc21", "note": "[9(f), 1-ethyl-8-methoxy-N-(cyclohexylmethyl)-1H-pyrazolo[3,4-b]quinolin-4-amine]", "values": [{"measurement": "IC50", "setting": "cGMP-PDE V [1]", "result": 610, "unit": "nM"}]}
{"molecule": "CCn1ncc2c(NCC3CCCCC3)c3cc([N+](=O)[O-])ccc3nc21", "note": "[15(c), 1-ethyl-6-nitro-N-(cyclohexylmethyl) -1H-pyrazolo[3,4-b]quinolin-4-amine]", "values": [{"measurement": "IC50", "setting": "cGMP-PDE V [1]", "result": 1.5, "unit": "nM"}, {"measurement": "change in vivo at 3 mg/kg", "setting": "[2]; [6]", "result": -18, "unit": "%"}]}
